Test results reported in PMC10398414, “Isolation and characterization of β-transducin repeat-containing protein ligands screened using a high-throughput screening system” (Oncology Research, 2023).

Columns and labels:
Pin1 = Pin1 (Homo sapiens, UniProt Q13526); test: Binding to Pin1 (data not shown)
SCF^β-TrCP1 = SCF^β-TrCP1 (Homo sapiens, UniProt Q9Y297); test: In vitro ubiquitination assay (GST-Wee1KR substrate, immunoblotting); type: biochemical; settings: immunoblots quantitated by ImageJ
Experimental: Components of SCF complex (SKP1, Cul1, Rbx1, and hemagglutinin (HA)-tagged β-TrCP) were expressed in HEK293T cells. Anti-HA antibody was added into the SCF complexes expressed HEK 293T cell lysate and rotated at 4°C for 1 h. Aliquots of this mixture were added to protein G beads and rotated at 4°C for 30 min. After washing the beads in cell lysis buffer three times, the tube was centrifuged at 20,400 × g for 5 min and the supernatant was discarded. The protein on the beads was used as recombinant SCF^β-TrCP complexes. Aliquots of SCF complexes bound on the beads were then added to ubiquitination reactions (10 mM Tris pH = 7.5, 5 mM MgCl2, 1 mM DTT, 1 mM ATP, 20 mM creatine phosphate, 0.1 mg/mL creatine kinase, 5 mM NaF, 1 mM Na3VO4, 2 mg/mL ubiquitin, 0.5 μg E1 enzyme, 2 μg E2 enzyme) in a final volume of 30 µL. Compounds of 100 µM final concentration were added to reactions, and GST-Wee1KR was added as substrate 15 min later. The reaction mixtures were incubated at 37°C for 2 h and were further examined by immunoblotting.
Immunoblotting followed by in vitro ubiquitination assay was performed using anti-human Wee1A [30]. Immunoblotting in the analysis of protein degradation was performed using anti-phospho-β-catenin (Ser33/37/Thr41) antibody (1:1000, Cell Signaling Technology, Danvers, MA, USA), anti-phospho-IκBα (Ser32) (14D4), Rabbit mAb (1:1000, Cell Signaling Technology), anti-β-catenin (D10A8) (1:1000, Cell Signaling Technology), anti-IκBα antibody (1:1000, Cell Signaling Technology), and Goat polyclonal anti-rabbit IgG antibody (1:5000, Proteintech, Am Klopferspitz, Planegg-Martinsried, Germany). The transferred membrane was incubated with specific antibody, then detected using Super Signal West Pico chemiluminescent substrate (Thermo Fisher Scientific) and FUSION SOLO S (VILBER LOURMAT/MS equipment, Zi Sud torcy, Marne-la-vallee, France). The quantification of immunoblotting results was performed using ImageJ software.

polo-box domain of Plk1 = polo-box domain of Plk1 (Homo sapiens, UniProt P53350); test: Binding to polo-box domain of Plk1 (data not shown)
Sequence of polo-box domain of Plk1 (P53350 326-603 limits assumed): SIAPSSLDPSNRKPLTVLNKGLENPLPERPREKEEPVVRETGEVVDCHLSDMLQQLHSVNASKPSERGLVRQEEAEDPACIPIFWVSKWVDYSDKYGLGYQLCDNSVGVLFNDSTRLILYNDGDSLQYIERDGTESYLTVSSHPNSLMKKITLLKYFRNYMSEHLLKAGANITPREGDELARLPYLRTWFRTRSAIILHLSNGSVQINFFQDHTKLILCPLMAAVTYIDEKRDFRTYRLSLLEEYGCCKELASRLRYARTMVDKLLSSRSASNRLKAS

SKP2 = SKP2 (Homo sapiens, UniProt Q13309); test: Binding to SKP2 (data not shown)
Sequence of SKP2 (Q13309 whole entry, species assumed): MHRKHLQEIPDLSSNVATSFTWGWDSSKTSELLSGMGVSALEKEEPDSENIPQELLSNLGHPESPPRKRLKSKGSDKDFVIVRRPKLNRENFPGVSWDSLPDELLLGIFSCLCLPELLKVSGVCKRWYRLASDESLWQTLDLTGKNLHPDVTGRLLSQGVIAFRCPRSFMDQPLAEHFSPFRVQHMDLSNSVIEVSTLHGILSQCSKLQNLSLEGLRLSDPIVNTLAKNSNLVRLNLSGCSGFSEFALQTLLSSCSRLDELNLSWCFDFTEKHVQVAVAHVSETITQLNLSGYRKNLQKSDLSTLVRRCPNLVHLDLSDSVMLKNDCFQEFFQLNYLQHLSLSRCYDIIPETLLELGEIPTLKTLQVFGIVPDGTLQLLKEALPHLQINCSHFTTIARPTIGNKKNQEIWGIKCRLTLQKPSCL

[1] = tested on: NF-κB transcription activity in HeLa cells; test: NF-κB luciferase reporter assay (pGL-4.32), TNF-α induced; type: cell-based
Experimental: For NF-κB transcription activity, PGL-4.32 contains five copies of the NF-κB response element, which is responsible for the transcription of the luciferase reporter gene, with pRL-SV40 as the internal control. NF-κB transcription activity was determined by firefly luciferase expression and normalized by renilla luciferase level. pGL-4.32 reporter plasmids (Promega) and pRL-sv40 renilla luciferase reporter (Promega) were co-transfected into HeLa cells using Lipofectamine 3000 reagent kit. Subsequently, 24 h after transfection, cells were cultured with the compounds of different dilutions for another 24 h. Furthermore, TNF-α was added, and the plates were cultured for another 4 h. The cells were lysed, and the luminescence was measured using the Luciferase Assay System. A minimum of three samples were taken for each sample.

14-3-3 proteins = test: Binding to 14-3-3 proteins (data not shown)
HeLa cells = test: Cytotoxicity / cell death; type: cell-based; settings: data not shown

Sequence of Pin1 (Q13526 whole entry, species assumed): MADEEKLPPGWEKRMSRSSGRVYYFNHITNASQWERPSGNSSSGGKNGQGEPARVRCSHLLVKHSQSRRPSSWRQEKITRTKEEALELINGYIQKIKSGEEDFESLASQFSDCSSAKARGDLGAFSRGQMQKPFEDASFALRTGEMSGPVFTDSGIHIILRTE
Sequence of SCF^β-TrCP1 (Q9Y297 whole entry): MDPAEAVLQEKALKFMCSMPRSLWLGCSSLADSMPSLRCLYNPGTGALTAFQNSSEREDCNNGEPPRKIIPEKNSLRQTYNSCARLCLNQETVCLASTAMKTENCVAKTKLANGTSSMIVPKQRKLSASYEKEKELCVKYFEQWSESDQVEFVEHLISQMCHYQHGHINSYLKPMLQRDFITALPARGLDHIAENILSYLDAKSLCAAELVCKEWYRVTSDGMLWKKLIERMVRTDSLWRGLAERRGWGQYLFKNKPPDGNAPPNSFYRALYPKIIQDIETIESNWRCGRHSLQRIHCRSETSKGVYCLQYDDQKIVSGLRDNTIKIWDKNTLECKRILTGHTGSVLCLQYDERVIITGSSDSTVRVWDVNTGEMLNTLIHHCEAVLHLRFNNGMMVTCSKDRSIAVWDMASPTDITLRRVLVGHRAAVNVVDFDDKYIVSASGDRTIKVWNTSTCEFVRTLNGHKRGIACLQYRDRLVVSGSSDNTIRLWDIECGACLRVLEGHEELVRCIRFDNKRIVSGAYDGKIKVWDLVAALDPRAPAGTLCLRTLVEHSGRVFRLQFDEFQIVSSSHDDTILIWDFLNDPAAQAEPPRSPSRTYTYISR
Sequence of SCF^β-TrCP1 (P63208 whole entry partner): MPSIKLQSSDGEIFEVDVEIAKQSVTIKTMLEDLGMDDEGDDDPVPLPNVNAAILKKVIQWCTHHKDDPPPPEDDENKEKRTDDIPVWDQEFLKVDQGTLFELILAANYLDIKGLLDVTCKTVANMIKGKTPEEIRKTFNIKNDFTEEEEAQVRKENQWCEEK
Sequence of SCF^β-TrCP1 (Q13616 whole entry partner): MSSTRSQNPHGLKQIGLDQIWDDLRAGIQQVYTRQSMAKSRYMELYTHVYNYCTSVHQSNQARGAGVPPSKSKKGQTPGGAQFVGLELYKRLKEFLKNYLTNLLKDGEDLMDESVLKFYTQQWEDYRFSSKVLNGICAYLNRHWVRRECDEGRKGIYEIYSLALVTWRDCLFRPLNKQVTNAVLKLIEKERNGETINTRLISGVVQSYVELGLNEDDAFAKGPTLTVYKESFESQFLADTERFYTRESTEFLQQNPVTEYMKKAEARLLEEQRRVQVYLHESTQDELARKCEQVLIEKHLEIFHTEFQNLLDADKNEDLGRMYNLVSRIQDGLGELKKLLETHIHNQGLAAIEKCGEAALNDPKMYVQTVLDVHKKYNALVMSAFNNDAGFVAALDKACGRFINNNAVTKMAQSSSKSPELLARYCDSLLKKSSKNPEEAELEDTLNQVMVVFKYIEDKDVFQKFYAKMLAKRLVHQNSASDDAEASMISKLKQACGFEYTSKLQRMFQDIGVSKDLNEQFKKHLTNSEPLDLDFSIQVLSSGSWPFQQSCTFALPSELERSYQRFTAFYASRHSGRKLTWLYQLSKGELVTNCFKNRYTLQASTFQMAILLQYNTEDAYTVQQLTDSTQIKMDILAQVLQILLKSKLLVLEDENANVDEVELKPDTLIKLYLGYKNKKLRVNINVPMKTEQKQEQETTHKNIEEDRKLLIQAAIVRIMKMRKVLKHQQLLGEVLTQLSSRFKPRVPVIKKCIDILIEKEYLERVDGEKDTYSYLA
Sequence of SCF^β-TrCP1 (P62877 whole entry partner): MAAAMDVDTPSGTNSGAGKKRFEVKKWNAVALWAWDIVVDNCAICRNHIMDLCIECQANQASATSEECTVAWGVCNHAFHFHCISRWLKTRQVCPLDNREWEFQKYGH

In the case of `Cc1cc(O)c(C(=O)/C=C/c2cccc(O)c2)c(=O)o1` [NPD5943], the “binding to Pin1” value (Pin1) is reported as “did not observe any binding”, the IC50 (SCF^β-TrCP1) is reported as 30 µM and the “binding to polo-box domain of Plk1” value (polo-box domain of Plk1) is reported as “did not observe any binding”. The “binding to SKP2” value (SKP2) was “did not bind to SKP2 at all”, the “NF-κB transcription, % of that of the control group (DMSO, TNF-α)” value ([1]; 20 μM) was “approximately 20%” and the “TNF-α induced NF-κB activation of transcription” value ([1]; 24 h compound then TNF-α 4 h) was “reduced NF-κB activation dose-dependently”. The “binding to 14-3-3 proteins” value (14-3-3 proteins) was “did not observe any binding” and the non-specific cytotoxicity (HeLa cells) was “cytotoxicity only at high concentration”.
